# According to patent US20240252456A1, “ORAL COMPOSITION, SKIN COSMETIC AND HAIR COSMETIC” (MARUZEN PHARMACEUTICALS CO., LTD., priority 2021, published 2024):
# What was measured:
# HAS3 mRNA = assay: Hyaluronic acid synthase 3 (HAS3) mRNA expression promotive action test; assay type: cell-based, human; settings: 25 μmol/L; NHEK, 24 hours; A/B×100, corrected with GAPDH
# Description: (§1) Normal human neonatal epidermal keratinocytes (NHEK) were precultured using normal human epidermal keratinocyte growth medium (KGM), and the cells were collected by a trypsin treatment. The collected cells were diluted with KGM to a cell density of 15×10^4 cells/mL, then seeded with 2 mL portions in a 6-well plate (30×10^4 cells/well), and cultured overnight under conditions of 37° C. and 5% CO2. After culturing, the medium was replaced with normal human epidermal keratinocyte basal medium (KBM, the above KGM without addition of growth additives (hEGF, BPE, insulin, antibacterial agents, hydrocortisone)), and culturing was further performed for 24 hours.
# (§2) After culturing for 24 hours, the medium was removed, and 2 mL of the test sample (Sample 1, see Table 10 below for final concentration) dissolved in KBM was added to each well, and culturing was performed under conditions of 37° C. and 5% CO2 for 24 hours. As a control, culturing was performed in the same manner using KBM to which no sample was added. After culturing, the medium was removed, total RNA was extracted using ISOGEN II (available from NIPPON GENE CO., LTD.), each RNA amount was measured using a spectrophotometer, and the total RNA was prepared so as to be 150 ng/μL.
# For HAS3 and GAPDH as an internal standard, the expression levels of mRNA were measured using the above total RNA as a template. […]
# [1] = system: Normal human neonatal epidermal keratinocytes (NHEK); assay: Laminin-332 production promotive action test; assay type: cell-based; settings: 25 μmol/L, 48 hours, A/B×100 vs no sample
# Description: Normal human neonatal epidermal keratinocytes (NHEK) were precultured in a 75 cm^2 flask using normal human epidermal keratinocyte growth medium (KGM), and the cells were collected by a trypsin treatment. The collected cells were diluted with a medium obtained by removing BPE from KGM (KGM-BPE) to a cell density of 1.0×10^5 cells/mL, then seeded with 500 μL per well in a 24-well plate, and cultured for 1 day.
# After the culturing was completed, the medium was removed, and 500 μL of the test sample (Sample 1, see Table 11 below for final concentration) dissolved in KGM-BPE was added to each well, and culturing was performed for 48 hours. As a control, culturing was performed in the same manner using KGM-BPE to which no sample was added. After the culturing was completed, 100 μL of the medium supernatant was transferred to an ELISA plate and adsorbed to the plate at 37° C. for 2 hours, and then the amount of adsorbed laminin-332 was measured by ELISA method. From the obtained measurement results, the laminin-332 production promotion rate (%) was calculated using the following equation.
# Laminin-332 production promotion rate (%)=A/B×100
# Terms in the equation represent the following respective ones. • A: Laminin-332 amount with test sample addition • B: Laminin-332 without sample addition
# AQP3 mRNA = assay: Aquaporin 3 (AQP3) mRNA expression promotive action test; assay type: cell-based, human; settings: 100 μmol/L; NHEK, 24 hours, corrected with GAPDH
# Description: as §1
# as §2, with “17” for “10”
# For AQP3 and GAPDH as an internal standard, the expression levels of mRNA were measured using the above total RNA as a template. […]
# AGEs = assay: Advanced glycation end product (AGEs) decomposition promotive action test; settings: preformed AGEs, 37° C., 20 days
# Description: In a 96-well type I collagen-coated plate (available from AGC Inc.), 100 μL of 0.2M D(−)-ribose solution prepared with PBS(−) buffer solution was added and statically placed at 37° C. for 2 weeks to form AGEs. In addition, the plate in which only the PBS(−) buffer solution was added was statically placed as a negative control in the same manner. After 2 weeks, 100 μL of the test sample (Sample 1, see Table 23 below for final concentration) prepared with PBS (−) buffer solution was added to each of the plates and statically further placed at 37° C. for 20 days. As a positive control, only PBS(−) buffer solution was statically placed in the same manner as substitute for the test sample, and as a negative control, only PBS(−) buffer solution was continued to be statically placed in the same manner. After 20 days, the amount of AGEs was measured by the ELISA method using an anti-AGEs antibody (available from TPANS GENIC INC.), and the AGEs decomposition promotive action was evaluated. From the obtained results, the AGEs decomposition promotion rate (%) was calculated using the following equation.
# Terms in the equation represent the following respective ones. • A: Absorbance at wavelength 405 nm in negative control • B: Absorbance at wavelength 405 nm in positive control • C: Absorbance at wavelength 405 nm with test sample addition
smiles,measurement,setting,value
"O=C(O)CCc1ccc(O)c(O)c1 [Sample 1, 3,4-Dihydroxyhydrocinnamic acid]",HAS3 mRNA expression promotion rate,HAS3 mRNA,173. 5%
same,Laminin-332 production promotion rate,[1],142. 0%
same,AQP3 mRNA expression promotion rate,AQP3 mRNA,207.8%
same,AGEs decomposition promotion rate,AGEs; 125 μmol/L,37.7%
same,AGEs decomposition promotion rate,AGEs; 500 μmol/L,39.9%
same,AGEs decomposition promotion rate,AGEs; 2000 μmol/L,34.1%
